Patent publication US8012978B2, “Prodrugs of CC-A1065 analogs” (ImmunoGen, Inc., priority 2006, dated 2011)
Like-named read-outs stand apart in the source and are kept apart here.

Columns and labels:
HL60 cells = assay: In vitro cytotoxicity towards HL60 cells; format: cell-based, human; conditions: HL60/s cells, 5-day exposure; read-out: IC50 Concentration
Description: (§1) Sulfide or disulfide-containing and mercapto-containing prodrugs of CC-1065 analogs of the present invention can be evaluated for their ability to suppress proliferation of various unwanted cell lines in vitro under incubation conditions. Cell lines such as, for example, Ramos cell line and HL60 can easily be used for the assessment of the cytotoxicity of these compounds. Cells to be evaluated can be exposed to the compounds for 24 hours and the surviving fractions of cells measured in direct assays by known methods. IC50 values can then be calculated from the results of the assays.
Cytotoxicity of the prodrugs of the present invention and their conjugates with cell binding agents can be measured after cleavage of the protecting group and conversion into the active drug. Cytotoxicity to non-adherent cell lines such as Namalwa and HL60 can be measured by back-extrapolation of cell proliferation curves as described in Goldmacher et al, 135 J. Immunol. 3648-3651 (1985). Cytotoxicity of these compounds to adherent cell lines such as A-375 and SCaBER can be determined by clonogenic assays as described in Goldmacher et al, 102 J. Cell Biol. 1312-1319 (1986). […]
• Cytotoxicity of DC07-SMe (FIG. 2) and DC1-SMe (FIG. 1D) towards Ramos and HL60/S cells has been measured in vitro with 5-day exposure. […]
• Cytotoxicity of DC1-SPy and DC07-SPy towards Ramos and HL60 cells has been measured. […]

Ramos cells = assay: In vitro cytotoxicity towards Ramos cells; format: cell-based, human
Description: as §1
(§2) Cytotoxicity of the prodrugs of the present invention and their conjugates with cell binding agents can be measured after cleavage of the protecting group and conversion into the active drug. Cytotoxicity to non-adherent cell lines such as Namalwa and HL60 can be measured by back-extrapolation of cell proliferation curves as described in Goldmacher et al, 135 J. Immunol. 3648-3651 (1985). Cytotoxicity of these compounds to adherent cell lines such as A-375 and SCaBER can be determined by clonogenic assays as described in Goldmacher et al, 102 J. Cell Biol. 1312-1319 (1986).
(§3) The human cancer cell lines HL60, Namalwa, A-375, COLO205 and Ramos were obtained from the American Type Culture Collection (ATCC). Kara is a murine tumor cell line that has been stably transfected with the human CD33 antigen.
• Cytotoxicity of DC07-SMe (FIG. 2) and DC1-SMe (FIG. 1D) towards Ramos and HL60/S cells has been measured in vitro with 5-day exposure. IC50 are shown below.
• Cytotoxicity of DC1-SPy and DC07-SPy towards Ramos and HL60 cells has been measured. Results are given in FIG. 7 and IC50 are shown below.
(§4) • Cytotoxicity of DC08-SSPy towards Namalwa and Ramos cells has been measured. Results are given in FIG. 8 and IC50 are shown below.
• Cytotoxicity of MY9-6-DC07 (disulfide linked) towards antigen positive Kara and antigen negative Ramos cells has been measured. Results are given in FIG. 9 and IC50 are shown below.

[1] = Conversion of prodrug by incubation in mice serum; format: in vitro ADME
Excerpt: (§5) The synthesis of prodrugs DC07 (7a), DC08 (8a) and DC107 (FIG. 4) is described herein. DC07 and DC08 as well as DC107 are derived from the parent drug DC1 and DC101, while DC09 (9a) can be prepared from the pegylated parent drug DC5 which was described in U.S. Pat. No. 6,756,397 B2 (FIG. 3). […] These drugs also have enhanced water solubility as compared with DC1.

Namalwa cells = assay: In vitro cytotoxicity towards Namalwa cells; format: cell-based, human; conditions: Namalwa cells (FIG. 8)
Excerpt: as §2, §3, §4

[2] = cited from earlier work
mice = conditions: single intravenous dose of 12.5 μg/kg; cited from earlier work
[3] = Stability in aqueous solutions; format: physicochemical; conditions: pH 5.5 or below
Excerpt: as §5

[4] = Conversion of prodrug by incubation in serum or plasma; format: in vitro ADME
Excerpt: as §5

COLO 205 cells = assay: In vitro cytotoxicity towards antigen positive COLO 205 cells; format: cell-based, human
Excerpt: as §2, §3
(§6) • Cytotoxicity of huC242-DC07 (thioether linked) towards antigen positive COLO 205 and antigen negative A-375 cells has been measured. Results are given in FIG. 10 and IC50 are shown below.

A-375 cells = assay: In vitro cytotoxicity towards antigen negative A-375 cells; format: cell-based, human
Excerpt: as §2, §3, §6

[5] = Ramos cells, 5-day exposure, read-out: IC50 Concentration

CSSCCC(=O)Nc1ccc2[nH]c(C(=O)Nc3ccc4[nH]c(C(=O)N5C[C@@H](CCl)c6c5cc(OC(=O)Nc5cccc(S(=O)(=O)O)c5)c5ccccc65)cc4c3)cc2c1 [DC07-SMe]
IC50 (HL60 cells): 0.05 nM | IC50 (Ramos cells; [5]): 0.12 nM | conversion into the parent drug [1]: converts it into the parent drug DC1SMe

(S)—N-[2-{(1-chloromethyl)-1,2-dihydro-5-[(3-hydroxysulfonylmethyl-phenyl)aminocarbonyloxy]-3H-benz(e)indol-3-yl}carbonyl]-H-indol-5-yl]-5-{[3-(2-pyridyldithio)-propanoyl]-amino}-1H-indole-2-carboxamide [DC08-SSPy]
IC50 (Ramos cells; Ramos cells (FIG. 8), read-out: IC50): 0.42 nM | IC50 (Namalwa cells): 0.42 nM

COc1c(O)c2c(c3cc(C(=O)N4CCc5c4c(O)c(OC)c4[nH]c(C(=O)N6CC7CC78C6=CC(=O)c6[nH]cc(C)c68)cc54)[nH]c13)CCN2C(N)=O (stereo not shown) [CC-1065]
potency in vitro relative to doxorubicin, methotrexate and vincristine [2]: about 1000 fold | toxicity (mice): delayed hepatotoxicity leading to mortality on day 50

O=C(CCS)Nc1ccc2[nH]c(C(=O)Nc3ccc4[nH]c(C(=O)N5C[C@@H](CCl)c6c5cc(OC(=O)Nc5cccc(S(=O)(=O)O)c5)c5ccccc65)cc4c3)cc2c1 [DC07]
stability in aqueous solutions [3]: extremely stable | conversion into the parent drug [4]: can be converted into the parent drug DC1

CSSCCC(=O)Nc1ccc2[nH]c(C(=O)Nc3ccc4[nH]c(C(=O)N5C[C@@H](CCl)c6c5cc(O)c5ccccc65)cc4c3)cc2c1 [DC1-SMe, 1-[S]-(chloromethyl)-5-hydroxy-3-{{5-[5-(3-methyldithiopropionyl)indol-2-yl-carbonylamino]indole-2-yl}carbonyl}-1,2-dihydro-3H-benz[e]indole, reference compound]
IC50 (HL60 cells): 0.036 nM | IC50 (Ramos cells; [5]): 0.062 nM

B1: huC242-DC07: huC242-DC07 (thioether linked) conjugate (conjugate, chains of the INN, looked up)
VH: QVQLVQSGAEVKKPGETVKISCKASDYTFTYYGMNWVKQAPGQGLKWMGWIDTTTGEPTYAQKFQGRIAFSLETSASTAYLQIKSLKSEDTATYFCARRGPYNWYFDVWGQGTTVTVSS
VL: DIVMTQSPLSVPVTPGEPVSISCRSSKSLLHSNGNTYLYWFLQRPGQSPQLLIYRMSNLVSGVPDRFSGSGSGTAFTLRISRVEAEDVGVYYCLQHLEYPFTFGPGTKLELK
modifications: DC07 drug, thioether linked
notes: huC242-DC07 (thioether linked) conjugate
IC50 (COLO 205 cells): 0.035 nM | IC50 (A-375 cells): 1.3 nM
